Experimental data reported in ChEMBL document CHEMBL1138944, “3-Substituted gem-cyclohexane sulfone based gamma-secretase inhibitors for Alzheimer's disease: conformational analysis and biological activity” (Bioorg Med Chem Lett, 2006).

Target: Gamma-secretase
Assay: Inhibition of gamma secretase expressed in SH-SY5Y cells
Format: cell-based, Homo sapiens

Structure (SMILES) | IC50
COC(=O)CCC[C@H]1CCC[C@](c2cc(F)ccc2F)(S(=O)(=O)c2ccc(Cl)cc2)C1 (relative stereo) | 376 nM
O=C(O)CC[C@@H]1CCC[C@](c2cc(F)ccc2F)(S(=O)(=O)c2ccc(Cl)cc2)C1 (relative stereo) | 24 nM
O=S(=O)(c1ccc(Cl)cc1)[C@@]1(c2cc(F)ccc2F)CCC[C@@H](CCCO)C1 (relative stereo) | 8 nM
O=C[C@@H]1CCC[C@](c2cc(F)ccc2F)(S(=O)(=O)c2ccc(Cl)cc2)C1 (relative stereo) | 77 nM
C=CC[C@@H]1CCC[C@](c2cc(F)ccc2F)(S(=O)(=O)c2ccc(Cl)cc2)C1 (relative stereo) | 44 nM
COC(=O)CCC[C@@H]1CCC[C@](c2cc(F)ccc2F)(S(=O)(=O)c2ccc(Cl)cc2)C1 (relative stereo) | 3 nM
COC(=O)CCC[C@@]1(C)CCC[C@](c2cc(F)ccc2F)(S(=O)(=O)c2ccc(Cl)cc2)C1 (relative stereo) | 1630 nM
O=C[C@H]1CCC[C@](c2cc(F)ccc2F)(S(=O)(=O)c2ccc(Cl)cc2)C1 (relative stereo) | 55 nM
COC(=O)/C=C/C[C@H]1CCC[C@](c2cc(F)ccc2F)(S(=O)(=O)c2ccc(Cl)cc2)C1 (relative stereo) | 210 nM
O=C(O)CC[C@H]1CCC[C@](c2cc(F)ccc2F)(S(=O)(=O)c2ccc(Cl)cc2)C1 (relative stereo) | 380 nM
COC(=O)CCC[C@]1(C)CCC[C@](c2cc(F)ccc2F)(S(=O)(=O)c2ccc(Cl)cc2)C1 (relative stereo) | 10 nM
O=S(=O)(c1ccc(Cl)cc1)[C@@]1(c2cc(F)ccc2F)CCC[C@H](CCCO)C1 (relative stereo) | 112 nM
C=CC[C@H]1CCC[C@](c2cc(F)ccc2F)(S(=O)(=O)c2ccc(Cl)cc2)C1 | 85 nM
COC(=O)/C=C/C[C@@H]1CCC[C@](c2cc(F)ccc2F)(S(=O)(=O)c2ccc(Cl)cc2)C1 (relative stereo) | 10 nM
